Test system: MDA-MB-435 cells
Assay: orthotopic human breast cancer mouse model, continuous 2-DG by intraperitoneal osmotic pump
Type: in vivo
Conditions: 19 μg/ml/hr or 30 mg/kg per 24 hrs continuously for 4 weeks; intraperitoneal osmotic pump filled with 328 mg/ml; MDA-MB-435 orthotopic in CD-1 nude mice
Method: 2×10^6 MDA-MB-435 cells were injected orthotopically to CD-1 nude mice. After two weeks, osmotic pumps (Model 1004, Alzet Inc.) were inserted into the peritoneal cavity under general anesthesia. In one group of animals (n=9), the pumps contained 0.9% NaCl, while in the other group (n=5), the pumps were filled with 2-DG at a concentration of 328 mg/ml. Mice were weighed, and tumor measurements were taken by caliper three times weekly. Tumor measurements were converted to tumor volume by using the formula W×L^2/2. Mice were killed when either W or L exceeded 15 mm. At sacrifice, mice were weighed, and tumors were excised and checked histologically for verification of tumor growth.

## O=CC[C@@H](O)[C@H](O)[C@H](O)CO [2-DG, 2-deoxy-D-glucose]
  tumor burden (tumor volume by caliper, W×L^2/2): effectively reduces tumor burden

Reference: patent publication US20110183926A1, “TREATMENT USING CONTINUOUS LOW DOSE APPLICATION OF SUGAR ANALOGS” (UNIVERSITY OF MIAMI, priority 2008, published 2011)
